Reference: patent publication US6653316B1, “Substituted polycyclic aryl and heteroaryl pyrimidinones useful for selective inhibition of the coagulation cascade” (Pharmacia Corporation, priority 1999, dated 2003)

Experiments:
Format in all cases: biochemical
[1] = molecular target: human thrombin (Homo sapiens, UniProt P00734); test: Thrombin Assay (chromogenic substrate hydrolysis, OD 405 nm); details: for IC50: cells without % sign, 60 min at room temperature, read-out: IC50 or % Inhibition Thrombin II (30 μM): IC50; for inhibition at 30 µM / inhibition at 100 µM: read-out: IC50 or % Inhibition Thrombin II (30 μM): % inhibition
Method: 0.28 nM human thrombin and 0.06 mM H-D-Phenylalanyl-L-pipecolyl-L-arginine-p-nitroaniline dihydrochloride are added to a 96-well assay plate containing either inhibitor or buffer (50 mM Tris-HCl, pH 8.0. 100 mM NaCl, 0.1% BSA). The reaction, in a final volume of 100 ul is measured immediately at 405 nm to determine background absorbance. The plate is incubated at room temperature for 60 min, at which time the rate of hydrolysis of the substrate is measured by monitoring the reaction at 405 nm for the release of p-nitroaniline. Percent inhibition of thrombin activity is calculated from OD405 nm value from the experimental and control sample.
(§1) Recombinant soluble TF, consisting of amino acids 1-219 of the mature protein sequence was expressed in E. coli and purified using a Mono Q Sepharose FPLC. Recombinant human VIIa was purchased from American Diagnostica, Greenwich Conn. and chromogenic substrate N-Methylsulfonyl-D-phe-gly-arg-p-nitroaniline was prepared by American Peptide Company, Inc., Sunnyvale, Calif. Factor Xa was obtained from Enzyme Research Laboratories, South Bend Ind., thrombin from Calbiochem, La Jolla, Calif., and trypsin and L-BAPNA from Sigma, St. Louis Mo. The chromogenic substrates S-2765 and S-2238 were purchased from Chromogenix, Sweden.

[2] = molecular target: T1, recombinant soluble tissue factor and recombinant human factor VIIa (TF-VIIa) (Homo sapiens, UniProt P08709); test: TF-VIIa Assay (chromogenic substrate hydrolysis, OD 405 nm); details: cells without % sign; 60 min at room temperature; read-out: IC50 or % Inhibition TF-VIIa (30 μM): IC50
T1 construct: conversion of coagulation factor VII to VIIa by Xa; host or cells: E. coli (soluble TF)
T1 sequence (P08709 213-466 limits assumed): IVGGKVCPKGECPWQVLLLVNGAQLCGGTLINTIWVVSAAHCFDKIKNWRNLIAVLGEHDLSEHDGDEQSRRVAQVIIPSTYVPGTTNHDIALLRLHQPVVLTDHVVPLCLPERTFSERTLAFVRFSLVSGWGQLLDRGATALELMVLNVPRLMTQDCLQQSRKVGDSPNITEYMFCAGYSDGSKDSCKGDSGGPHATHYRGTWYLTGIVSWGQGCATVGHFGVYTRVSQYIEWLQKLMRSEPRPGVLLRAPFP
T1 sequence (P08709 61-212 limits assumed): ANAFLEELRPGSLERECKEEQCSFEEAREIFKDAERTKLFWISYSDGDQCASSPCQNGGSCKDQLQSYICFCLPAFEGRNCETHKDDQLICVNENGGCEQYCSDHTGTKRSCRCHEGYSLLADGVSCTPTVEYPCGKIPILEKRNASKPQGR
T1 sequence (P13726 33-251 partner limits assumed): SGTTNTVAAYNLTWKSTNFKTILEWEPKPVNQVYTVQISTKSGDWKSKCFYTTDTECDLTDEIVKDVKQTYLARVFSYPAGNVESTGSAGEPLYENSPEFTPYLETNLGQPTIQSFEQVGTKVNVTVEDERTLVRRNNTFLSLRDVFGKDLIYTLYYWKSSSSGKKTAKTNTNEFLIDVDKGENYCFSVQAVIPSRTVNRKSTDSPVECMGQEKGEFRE
Method: In this assay 100 nM recombinant soluble tissue factor and 2 nM recombinant human factor VIIa are added to a 96-well assay plate containing 0.4 mM of the substrate, N-Methylsulfonyl-D-phe-gly-arg-p-nitroaniline and either inhibitor or buffer (5 mM CaCl2,50 mM Tris-HCl, pH 8.0, 100 mM NaCl, 0.1% BSA). The reaction, in a final volume of 100 ul is measured immediately at 405 nm to determine background absorbance. The plate is incubated at room temperature for 60 min, at which time the rate of hydrolysis of the substrate is measured by monitoring the reaction at 405 nm for the release of p-nitroaniline. Percent inhibition of TF-VIIa activity is calculated from OD405 nm value from the experimental and control sample.
as §1

[3] = molecular target: T2, trypsin, type IX from porcine pancreas (Sus scrofa, UniProt P00761); test: Trypsin Assay (L-BAPNA hydrolysis, OD 405 nm); details: cells without % sign; 60 min at room temperature; read-out: IC50 or % Inhibition Trpysin II (30 μM): IC50
T2 construct: purchased Sigma, St. Louis Mo. type IX; host or cells: porcine pancreas
T2 sequence (P00761 9-231): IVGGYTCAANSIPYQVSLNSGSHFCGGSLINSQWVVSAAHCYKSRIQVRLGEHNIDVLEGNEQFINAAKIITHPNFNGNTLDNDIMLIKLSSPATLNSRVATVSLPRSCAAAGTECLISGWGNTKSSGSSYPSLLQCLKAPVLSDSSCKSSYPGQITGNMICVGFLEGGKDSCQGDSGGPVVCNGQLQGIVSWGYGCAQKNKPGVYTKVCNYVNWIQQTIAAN
Method: 5 ug/ml trypsin, type IX from porcine pancreas and 0.375 mM N-α-Benzoyl-L-arginine-p-nitroanilide (L-BAPNA) are added to a 96-well assay plate containing either inhibitor or buffer (50 mM Tris-HCl, pH 8.0, 100 mM NaCl, 0.1% BSA). The reactions, in a final volume of 100 ul are measured immediately at 405 nm to determine background absorbance. The plate is incubated at room temperature for 60 min, at which time the rate of hydrolysis of the substrate is measured by monitoring the reaction at 405 nm for the release of p-nitroaniline. Percent inhibition of trypsin activity is calculated from OD405 nm value from the experimental and control sample.
as §1

[4] = molecular target: T3, human factor Xa (Homo sapiens, UniProt P00742); test: Xa Assay (chromogenic substrate S-2765 hydrolysis, OD 405 nm)
T3 construct: purchased Enzyme Research Laboratories, South Bend Ind
T3 sequence (P00742 235-488 limits assumed): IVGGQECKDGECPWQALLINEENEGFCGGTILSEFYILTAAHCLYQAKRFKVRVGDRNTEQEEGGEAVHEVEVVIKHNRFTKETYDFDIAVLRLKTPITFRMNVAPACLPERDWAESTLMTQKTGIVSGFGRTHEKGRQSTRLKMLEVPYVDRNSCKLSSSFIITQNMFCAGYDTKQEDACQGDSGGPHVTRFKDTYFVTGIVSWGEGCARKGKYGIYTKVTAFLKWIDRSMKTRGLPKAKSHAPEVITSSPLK
T3 sequence (P00742 41-179 limits assumed): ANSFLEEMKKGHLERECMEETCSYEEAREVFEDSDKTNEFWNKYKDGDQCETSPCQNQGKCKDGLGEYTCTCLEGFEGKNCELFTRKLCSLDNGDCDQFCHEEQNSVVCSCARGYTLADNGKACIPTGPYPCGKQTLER
Method: 0.3 nM human factor Xa and 0.15 mM N-α-Benzyloxycarbonyl-D-arginyl-L-glycyl-L-arginine-p-nitroaniline-dihydrochloride (S-2765) are added to a 96-well assay plate containing either inhibitor or buffer (50 mM Tris-HCl, pH 8.0, 100 mM NaCl, 0.1% BSA). The reaction. in a final volume of 100 ul is measured immediately at 405 nm to determine background absorbance. The plate is incubated at room temperature for 60 min, at which time the rate of hydrolysis of the substrate is measured by monitoring the reaction at 405 nm for the release of p-nitroaniline. Percent inhibition of Xa activity is calculated from OD405 nm value from the experimental and control sample.
as §1

[5] = read-out: IC50 or % Inhibition Factor Xa (30 μM): % inhibition

Row | Structure (SMILES) | IC50 [1] [nM] | IC50 [2] [nM] | IC50 [3] [nM] | inhibition at 30 µM [1] [%] | inhibition at 30 µM [4, 5] [%] | inhibition at 100 µM [1] [%] | IC50 ([4]; cells without % sign, 60 min at room temperature, read-out: IC50 or % Inhibition Factor Xa (30 μM): IC50) [nM] | inhibition at 100 µM ([4]; @100 μM, read-out: IC50 or % Inhibition Factor Xa (30 μM): % inhibition) [%]
1 | N=C(N)c1ccc(CNC(=O)Cn2c(-c3ccccc3)ncc(NS(=O)(=O)Cc3ccccc3)c2=O)cc1 [Example 1] | 22400 | 15400 | 500 | – | – | – | – | –
2 | N=C(N)c1cccc(CNC(=O)Cn2c(-c3ccccc3)ncc(NS(=O)(=O)Cc3ccccc3)c2=O)c1 [Example 2] | > 30000 | – | – | – | – | – | – | –
3 | N=C(N)c1ccc(CNC(=O)Cn2c(-c3ccccc3)ncc(NCCc3ccccc3)c2=O)cc1 [Example 3] | – | 1000 | 600 | – | – | – | – | –
4 | CC(C)Nc1cnc(-c2cccc(N)c2)n(CC(=O)NCc2ccc(C(=N)N)cc2)c1=O [Example 6] | – | 50 | < 40 | 43 | 33 | – | – | –
5 | CC(C)Nc1cnc(-c2cccnc2)n(CC(=O)NCc2ccc(C(=N)N)cc2)c1=O [Example 7] | 11300 | 700 | 40 | – | 33 | – | – | –
6 | N=C(N)c1ccc(CNC(=O)Cn2c(-c3cccc(N)c3)ncc(NC3CCC3)c2=O)cc1 [Example 8] | – | 80 | 40 | 42 | 15 | – | – | –
7 | COC(=O)c1cc(N)cc(-c2ncc(NC(C)C)c(=O)n2CC(=O)NCc2ccc(C(=N)N)cc2)c1 [Example 20] | – | 80 | 30 | – | – | 41 | 85000 | –
8 | CC(C)Nc1cnc(-c2cc(N)cc(C(=O)O)c2)n(CC(=O)NCc2ccc(C(=N)N)cc2)c1=O [Example 21] | – | 70 | 50 | – | – | 26 | – | 15
